Consider 2 molecules from US20240041042A1, “1-(PYRIDYL)-5-AZINYLPYRAZOLE DERIVATIVES, AND THEIR USE FOR CONTROL OF UNDESIRED PLANT GROWTH” (Bayer Aktiengesellschaft, priority 2020, published 2024).

Like-named read-outs stand apart in the source and are kept apart here.

Holding throughout (assay type): in vivo
Data set [1] relates to Alopecurus myosuroides (ALOMY). In words: Pre-emergence herbicidal action against ALOMY. The following applies: scored visually after about 3 weeks, 100% = plants have died. The gist of the method:
(§1)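 Pre-emergence soil-surface spray, WP/EC formulation, 0.5% additive, 600 l/ha water, rates of 320 g/ha or lower. Greenhouse, ~3 wk. Visual score, % of untreated control (100% = plants dead, 0% = like control).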

Data set [2] has as its system Amaranthus retroflexus (AMARE). The data set can be described thus: Pre-emergence herbicidal action against AMARE. To be noted: visual scoring after about 3 weeks vs untreated controls. In a few lines:
as §1

In a further data set the test system is Avena fatua (AVEFA). In words: Pre-emergence herbicidal action against AVEFA. To be noted: 320 g/ha, visual scoring after about 3 weeks vs untreated controls. In a few lines:
as §1

Data set [3] relates to Echinochloa crus-galli (ECHCG). In words: Pre-emergence herbicidal action against ECHCG. The following applies: dosage 320 g/ha. In a few lines: as §1
The test system of another data set is Lolium rigidum (LOLRI). In words: Pre-emergence herbicidal action against LOLRI. To be noted: dosage 320 g/ha. The gist of the method:
as §1

For data set [4], the system named is Matricaria inodora (MATIN). The data set can be described thus: Pre-emergence herbicidal action against MATIN. To be noted: dosage 320 g/ha. In a few lines: as §1
For data set [5], the system named is Pharbitis purpurea (PHBPU). The data set can be described thus: Pre-emergence herbicidal action against PHBPU. To be noted: dosage 320 g/ha. In a few lines:
as §1

For data set [6], the system named is Polygonum convolvulus (POLCO). The data set can be described thus: Pre-emergence herbicidal action against POLCO. The gist of the method:
as §1

The subject of data set [7] is Setaria viridis (SETVI). The data set can be described thus: Pre-emergence herbicidal action against SETVI. The following applies: dosage 320 g/ha. In a few lines:
as §1

Data set [8] concerns Verconica persica (VERPE). In words: Pre-emergence herbicidal action against VERPE. In a few lines:
as §1

Data set [9] relates to Viola tricolor (VIOTR). The data set can be described thus: Pre-emergence herbicidal action against VIOTR. The gist of the method: as §1
In data set [10] the test system is Zea mays (ZEAMX). To be noted: pre-emergence, 80 g/ha, crop plant compatibility, in comparison to untreated controls. The source says: Seeds of monocotyledonous and dicotyledonous weed plants and crop plants are placed in plastic or organic planting pots and covered with soil. The compounds of the invention, formulated in the form of wettable powders (WP) or as emulsion concentrates (EC), are then applied to the surface of the covering soil as aqueous suspension or emulsion with addition of 0.5% additive at a water application rate equivalent to 600 l/ha. After the treatment, the pots are placed in a greenhouse and kept under good growth conditions for the trial plants. After about 3 weeks, the effect of the preparations is scored visually in comparison with untreated controls as percentages. For example, 100% activity=the plants have died, 0% activity=like control plants.
The observed effects on selected crop plants are reported here in comparison to the untreated controls (values in %). The appendices “a” “b” and “c” give differentiation by dosage used with otherwise the same crop plants tested.

The subject of data set [11] is Alopecurus myosuroides (ALOMY). In words: Post-emergence herbicidal action against ALOMY. The following applies: 80 g/ha, visual rating about 3 weeks after treatment vs untreated controls (100% = plants have died, 0% = like control plants). In a few lines:
(§2)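 Greenhouse plants sprayed at the one-leaf stage, 2–3 weeks after sowing, with WP or EC formulations plus 0.5% additive at 600 l/ha water. Activity rated visually after about 3 weeks versus untreated controls (100% = dead, 0% = like control), at 320 g/ha or lower.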

Data set [12] relates to Amaranthus retroflexus (AMARE). The data set can be described thus: Post-emergence herbicidal action against AMARE. The gist of the method: as §2
Data set [13] concerns Matricaria inodora (MATIN). In words: Post-emergence herbicidal action against MATIN. To be noted: dosage 80 g/ha. The gist of the method:
as §2

Data set [14] has as its system Verconica persica (VERPE). The data set can be described thus: Post-emergence herbicidal action against VERPE. In a few lines: as §2
The next data set relates to Oryza sativa (ORYSA). The following applies: crop plant compatibility. In a few lines: (§3)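 Effects were read visually as % versus untreated controls (0% = no effect, 100% = death) about 3 weeks post-treatment. Application was a post-emergence spray at the one-leaf stage of WP/EC formulations with 0.5% additive at 600 l/ha. Different dosages are denoted a, b and c.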
For data set [15], the system named is Zea mays (ZEAMX). To be noted: 20 g/ha, ZEAMX, effect in comparison to untreated controls. In a few lines:
as §3

For data set [16], the system named is Abutilon theophrasti (ABUTH). The data set can be described thus: Post-emergence herbicidal action against ABUTH. To be noted: 320 g/ha, visual rating about 3 weeks after treatment vs untreated controls (100% = plants have died, 0% = like control plants). In a few lines: as §2
Data set [17] deals with Echinochloa crus-galli (ECHCG). The data set can be described thus: Post-emergence herbicidal action against ECHCG. The gist of the method: as §2
Data set [18] relates to Pharbitis purpurea (PHBPU). In words: Post-emergence herbicidal action against PHBPU. The following applies: dosage 320 g/ha. The gist of the method: as §2
Data set [19] concerns Polygonum convolvulus (POLCO). The data set can be described thus: Post-emergence herbicidal action against POLCO. The following applies: dosage 320 g/ha. The gist of the method:
as §2

Data set [20] concerns Setaria viridis (SETVI). In words: Post-emergence herbicidal action against SETVI. The following applies: dosage 320 g/ha. In a few lines:
as §2

The subject of data set [21] is Viola tricolor (VIOTR). In words: Post-emergence herbicidal action against VIOTR. The gist of the method: as §2
Data set [22] deals with Triticum aestivum (TRZAS). The following applies: crop plant compatibility, 80 g/ha, effect vs untreated controls. In a few lines:
as §3

[23] abbreviates: 80 g/ha, effect in comparison to untreated controls.

Consider `O=C(COc1nn(-c2ccccn2)c(-c2ccc(F)nc2)c1Br)OCC1CCCO1` (stereo not shown) [Example I-93], for which the entries for the “Pre-emergence action against ALOMY” value in data set [1] (80 g/ha) and in [1] (320 g/ha) were 90% and 100%, respectively. Also, the “Pre-emergence action against AMARE in %” value amounted to 90% in data set [2] (80 g/ha) and 100% in data set [2] (320 g/ha). Further, the “Pre-emergence action against AVEFA in %” value with Avena fatua (AVEFA) was 90%. The “Pre-emergence action against ECHCG in %” value in [3] came out at 100%. In addition, the “Pre-emergence action against LOLRI in %” value in the data set with Lolium rigidum (LOLRI) turned out to be 100%. Besides, the “Pre-emergence action against MATIN in %” value in data set [4] is reported as 100%. Besides, the “Pre-emergence action against PHBPU in %” value in data set [5] stood at 80%. Further, the “Pre-emergence action against POLCO in %” value in data set [6] (dosage 80 g/ha) and in data set [6] (dosage 320 g/ha) was 90% each time. For the same molecule, the “Pre-emergence action against SETVI in %” value in the data set on Setaria viridis (SETVI) [7] was determined as 100%. For the same molecule, the “Pre-emergence action against VERPE in %” value in data set [8] (dosage 320 g/ha) is recorded as 100%. The “Pre-emergence action against VIOTR in %” value in the data set with Viola tricolor (VIOTR) [9] (320 g/ha, Viola tricolor) worked out at 100%. In addition, the “Pre-emergence action against ZEAMX in %” value in the data set on Zea mays (ZEAMX) [10] came out at 0%. For the same molecule, the “Post-emergence action against ALOMY in %” value in data set [11] was 100%. In data set [12] (80 g/ha, visual rating about 3 weeks after treatment vs untreated controls (100% = plants have died, 0% = like control plants)), the “Post-emergence action against AMARE in %” value is 80%. In data set [13], the “Post-emergence action against MATIN in %” value is 80%. Besides, the “Post-emergence action against VERPE in %” value in data set [14] (dosage 80 g/ha) came out at 80%. Also, the “Post-emergence action against ORYSA in %” value with Oryza sativa (ORYSA) (20 g/ha, effect vs untreated controls) was 10%; in the data set with Oryza sativa (ORYSA) (setting [23]), 20%. The “Post-emergence action against ZEAMX in % (crop plant compatibility)” value in the data set on Zea mays (ZEAMX) [15] stood at 20%.

For `CCOC(=O)COc1nn(-c2ncccc2C(F)(F)F)c(-c2cncc(F)c2)c1Br` [Example I-202], in data set [1] (320 g/ha), the “Pre-emergence action against ALOMY” value was 80%. Moreover, in data set [2] (320 g/ha), the “Pre-emergence action against AMARE in %” value was 90%. In data set [3], the “Pre-emergence action against ECHCG in %” value is 90%. Further, the “Pre-emergence action against MATIN in %” value in data set [4] is listed as 80%. Moreover, the “Pre-emergence action against PHBPU in %” value in data set [5] was found to be 90%. Moreover, the “Pre-emergence action against POLCO in %” value in data set [6] (dosage 320 g/ha) turned out to be 90%. Also, the “Pre-emergence action against SETVI in %” value in the data set with Setaria viridis (SETVI) [7] is given as 90%. Besides, the “Pre-emergence action against VERPE in %” value in data set [8] (dosage 80 g/ha) is reported as 80%; in data set [8] (dosage 320 g/ha), 90%. Besides, the “Pre-emergence action against VIOTR in %” value stood at 100% in the data set with Viola tricolor (VIOTR) [9] (320 g/ha, Viola tricolor) and 90% with Viola tricolor (VIOTR) [9] (dosage 80 g/ha). Moreover, in the data set on Zea mays (ZEAMX) [10], the “Pre-emergence action against ZEAMX in %” value was found to be 20%. Besides, in data set [16], the “Post-emergence action against ABUTH in %” value came to 80%. The “Post-emergence action against AMARE in %” value in data set [12] (320 g/ha, visual rating about 3 weeks after treatment) was determined as 80%. Also, the “Post-emergence action against ECHCG in %” value is listed as 80% in data set [17] (dosage 80 g/ha) and 90% in data set [17] (dosage 320 g/ha). Moreover, the “Post-emergence action against PHBPU in %” value in data set [18] is recorded as 90%. The “Post-emergence action against POLCO in %” value in [19] is 80%. Besides, the “Post-emergence action against SETVI in %” value in the data set with Setaria viridis (SETVI) [20] stood at 80%. Also, the “Post-emergence action against VERPE in %” value in data set [14] (320 g/ha, VERPE) is 80%. The “Post-emergence action against VIOTR in %” value in the data set with Viola tricolor (VIOTR) [21] (80 g/ha) and in the data set with Viola tricolor (VIOTR) [21] (320 g/ha) was 80% in each case. The “Post-emergence action against ORYSA in %” value in the data set with Oryza sativa (ORYSA) (setting [23]) was 20%. In addition, in data set [22], the “Post-emergence action against TRZAS in %” value was found to be 20%.
